The text below walks through data of patent US20210186972A1, “FORMULATIONS AND METHODS FOR THE PREVENTION AND TREATMENT OF TUMOR METASTASIS AND TUMORIGENESIS” (THE UNITED STATES OF AMERICA, AS REPRESENTED BY THE …, priority 2018, published 2021).

Each structure is given as a SMILES string. Read-outs that look alike come from different tables or passages of the source.

A short description of data set [1]: in vivo. Particulars: mouse. Also on record: species or system BALB/c mice. The method, then:
(§1) Metarrestin was administered to female BALB/c mice, n=3 in the single dose and the repeat doses were administered to SCID-beige mice, n=3 per time point. The repeat dose study mice were given daily intraperitoneal injections for 4 weeks, with concentration measured 24 h after the last dose. Metarrestin was formulated in 5% NMP+20% PEG400+75% (10% […] in water).
BALB/c mice, 17-19 g, female, n=66, were purchased and had free access to food and water. They were dosed with metarrestin at 5 or 25 mg/kg (10 ml/kg) in 5% NMP [NMP (Sigma-Aldrich cat #270458), 20% PEG400 (Sigma-Aldrich cat #202398), and 75% 10% HPBCD (Sigma-Aldrich cat #H107)] via lower left abdominal quadrant injection (n=33 each dose). The animals were anesthetized with isoflurane and restrained manually at the designated time points. Approximately 120 μL of blood were taken from the animals into K2EDTA tubes via retro-orbital puncture. Blood samples were placed on ice and centrifuged (2,000 g, 5 min under 4° C.) to obtain plasma samples within 15 minutes. An aliquot of 20 μL plasma sample was protein-precipitated with 200 μL acetonitrile that contained 50 ng/mL IS (dexamethasone). […] Twenty-four hours after the final dose, the concentrations of metarrestin in plasma were analyzed.

Data set [2] concerns eEF1A. The data set is described as follows: Western blot of total eEF1A. The format is cell-based. Conditions: 1 μM, 24 hours.
For data set [3], the system named is PC3M-GFP-PTB cells. The experiment in a line: PNC prevalence / PNC disassembly in PC3M-GFP-PTB cells. In kind it is cell-based, human. An excerpt: FIG. 1 is a graph showing the concentration-response curve against PNC prevalence in PC3M (a metastatic prostate cancer cell line)-GFP (green fluorescent protein)-PTB (polypyrimidine tract-binding protein) cells (squares, PC3M, has a PNC prevalence of 75-85% in the absence of treatment) and cytotoxicity as measured by cellular ATP (CELLTITER GLO™) (circles). Representative PTB-GFP images for cells at the indicated concentrations (arrowheads indicate PNCs) (scale bar=5 μm) are shown in the three panels above the graph. The relative signal (%) is along the y-axis and Metarrestin [log M] is along the x-axis.
A metastatic prostate cancer cell line, PC3M, was developed in order to screen small molecules that effectively disassemble PNCs (see Pettaway, et al., “Selection of highly metastatic variants of different human prostatic carcinomas using orthotopic implantation in nude mice,” Clin. Cancer Res., (2): 1627-36 (1996), incorporated herein in its entirety). PC3M has a […] stably express GFP-PTB (polypyrimidine track binding protein) (FIG. 1, top panels), an essential component of PNCs (see Huang, et al., “The perinucleolar compartment and transcription,” Journal of Cell Biology, (143): 35-47 (1998), incorporated herein in its entirety). Compounds able to reduce PNC prevalence by 50% were filtered in secondary assays to eliminate those that induced apoptosis, DNA damage, generic cytotoxicity, or cell-cycle blockage (see Norton, et al., “Automated high-content screening for compounds that disassemble the perinucleolar compartment,” J Biomol Screen, (14): 1045-53 (2009) and Frankowski, et al., “Discovery and Development of Small Molecules That Reduce PNC Prevalence, in Probe Reports from the NIH Molecular Libraries Program, Bethesda (Md.).(2010), incorporated herein in their entirety). The remaining hits were evaluated for invasion inhibition through MATRIGEL gelatinous protein mixture and anchorage-independent growth inhibition using soft agar assays.

The subject of data set [4] is PANC1 cells. The data set is described as follows: 24-well Transwell MATRIGEL invasion assay, PANC1. The format is cell-based, human. Particulars: 0.6 μM, within 24 hours. The method, then:
FIG. 3 is a bar graph showing that metarrestin inhibits MATRIGEL gelatinous protein mixture (BD Biosciences, Franklin Lakes, N.J.) invasion at below micromolar concentrations (0.6 μM) within 24 hours of treatment (* p<0.05 and ** p<0.01 in comparison to DMSO [control]). The invasion (%) is on the y-axis and the metarrestin [microM] is on the x-axis. The cell line PC3M is shown in white bars and the cell line PANC1 (human pancreas) is shown in black bars.
24-well Transwell Permeable MATRIGEL gelatinous protein mixture Invasion assay: The effect of metarrestin on invasion activity of PANC1 and PC3M cells was measured using 24-well Transwell Permeable MATRIGEL gelatinous protein mixture Invasion Chambers with 8 μm pores (Corning, Cat #354480). Membranes were rehydrated with 500 μL of serum-free DMEM (Thermo Fisher, Cat #11965084) both inside the chamber and inside the well and incubated for two hours at 37° C., 5% CO2. Cells were detached, washed, resuspended in serum-free DMEM, counted, and diluted to a final concentration of 1×10^5 cells/mL in six separate 15 mL conical tubes. […] 750 μL of DMEM plus 10% FBS acting as a chemoattractant were placed in the basal wells. Plates were incubated at 37° C., 5% CO2 for 24 hours. […]

Data set [5] can be described thus: Repeat dose plasma pharmacokinetics, IP. In kind it is in vivo, SCID Beige mice. Particulars: for concentration at 24 h: SCID Beige, mouse, plasma, intraperitoneal. The method, then: as §1
BALB/c mice, 17-19 g, female, n=66, were purchased and had free access to food and water. They were dosed with metarrestin at 5 or 25 mg/kg (10 ml/kg) in 5% NMP [NMP (Sigma-Aldrich cat #270458), 20% PEG400 (Sigma-Aldrich cat #202398), and 75% 10% HPBCD (Sigma-Aldrich cat #H107)] via lower left abdominal quadrant injection (n=33 each dose). The animals were anesthetized with isoflurane and restrained manually at the designated time points. Approximately 120 μL of blood were taken from the animals into K2EDTA tubes via retro-orbital puncture. Blood samples were placed on ice and centrifuged (2,000 g, 5 min under 4° C.) to obtain plasma samples within 15 minutes. An aliquot of 20 μL plasma sample was protein-precipitated with 200 μL acetonitrile that contained 50 ng/mL IS (dexamethasone). The mixture was vortexed for 2 min, centrifuged at 14,000 rpm for 5 min, and an aliquot of 30 μL supernatant was diluted with 70 μL MeOH:H2O (1:1, v/v), then vortexed for 2 min. A 2 μL aliquot of supernatant was injected into UPLC-MS/MS. Analysis of samples was done with an LC-MS/MS-02 (API4000), Waters-BEH-C18 (2.1×50 mm, 1.7 μm) column, flow rate 0.6 mL/min, with a mobile phase consisting of solvent A (H2O— 0.025% FA-1 mM NH4OAc) and solvent B (MeOH— 0.025% FA-1 mM NH4OAc). The gradient was 10, 90, 90, 10% B at 0.30, 0.60, 1.20, 1.21, 1.80 (stop) min. Retention times for metarrestin and dexamethasone were 1.09 and 1.08 min, respectively. Calibration curves were established with known serially diluted concentrations of metarrestin before analysis. SCID Beige mice were purchased and dosed with metarrestin at 5 and 25 mg/kg, once daily at 24 hour intervals for 4 weeks as above. Twenty-four hours after the final dose, the concentrations of metarrestin in plasma were analyzed.

[6] abbreviates: 25 mg/kg IP once daily for 4 weeks, 24 h after the final dose.

In data set [1] (female, BALB/c, ip, 25 mg/kg), `N=c1c2c(-c3ccccc3)c(-c3ccccc3)n(Cc3ccccc3)c2ncn1[C@H]1CC[C@H](O)CC1` [metarrestin] yielded a half-life of 4.6 to 5.5 h. Also, the Bioavailability result in data set [1] was “high bioavailability”. In addition, the “Total eEF1A protein” value in data set [2] was “remained similar”. Besides, the “PNC disassembly and nucleolar distortion” value in data set [3] (1 μM) is on record as about 100%. The compound further came in with an IC90 in data set [3] (Homo sapiens, FIG. 1) of 750 nM. Further, the IC50 in data set [3] (Homo sapiens, P3CM cells, read-out: PNC disassembling IC50) is 390 nM; in data set [3] (Homo sapiens, PC3M-GFP-PTB cells, read-out: IC50 for disruption of PNCs) it was 390 nM. Moreover, in data set [3] (PC3M cells, 24 hours), the IC100 was found to be 1 µM. Also, the “Invasion of PANC1 cells” value in data set [4] is listed as “effectively blocked the invasion”. Also, the Plasma concentration in data set [5] (setting [6]) came to 1460 nM. The concentration at 24 h in data set [5] (5 mg/kg IP once daily for 4 weeks, 24 h after the final dose) was determined as 48.4 ng/mL; in data set [5] (setting [6]) it was 692 ng/mL. For the same compound, the Risk of accumulation entry in data set [5] (single and multiple daily IP dosing, 5 and 25 mg/kg) is “predicted moderate risk of accumulation”.
